# Experimental data from BindingDB's records for doi:10.1016/s0006-2952(96)00656-9 (Institute of Parasitology of Mcgill University, 1997).
# pKd: −log10 of the molar value.
# Biological target: ATP-dependent translocase ABCB1 (Homo sapiens, UniProt P08183)
# Experiment: TP_TRANSPORTER: binding in plasma membranes from CEM/VLB1.0 cells
# Sequence of ATP-dependent translocase ABCB1 (P08183 whole entry): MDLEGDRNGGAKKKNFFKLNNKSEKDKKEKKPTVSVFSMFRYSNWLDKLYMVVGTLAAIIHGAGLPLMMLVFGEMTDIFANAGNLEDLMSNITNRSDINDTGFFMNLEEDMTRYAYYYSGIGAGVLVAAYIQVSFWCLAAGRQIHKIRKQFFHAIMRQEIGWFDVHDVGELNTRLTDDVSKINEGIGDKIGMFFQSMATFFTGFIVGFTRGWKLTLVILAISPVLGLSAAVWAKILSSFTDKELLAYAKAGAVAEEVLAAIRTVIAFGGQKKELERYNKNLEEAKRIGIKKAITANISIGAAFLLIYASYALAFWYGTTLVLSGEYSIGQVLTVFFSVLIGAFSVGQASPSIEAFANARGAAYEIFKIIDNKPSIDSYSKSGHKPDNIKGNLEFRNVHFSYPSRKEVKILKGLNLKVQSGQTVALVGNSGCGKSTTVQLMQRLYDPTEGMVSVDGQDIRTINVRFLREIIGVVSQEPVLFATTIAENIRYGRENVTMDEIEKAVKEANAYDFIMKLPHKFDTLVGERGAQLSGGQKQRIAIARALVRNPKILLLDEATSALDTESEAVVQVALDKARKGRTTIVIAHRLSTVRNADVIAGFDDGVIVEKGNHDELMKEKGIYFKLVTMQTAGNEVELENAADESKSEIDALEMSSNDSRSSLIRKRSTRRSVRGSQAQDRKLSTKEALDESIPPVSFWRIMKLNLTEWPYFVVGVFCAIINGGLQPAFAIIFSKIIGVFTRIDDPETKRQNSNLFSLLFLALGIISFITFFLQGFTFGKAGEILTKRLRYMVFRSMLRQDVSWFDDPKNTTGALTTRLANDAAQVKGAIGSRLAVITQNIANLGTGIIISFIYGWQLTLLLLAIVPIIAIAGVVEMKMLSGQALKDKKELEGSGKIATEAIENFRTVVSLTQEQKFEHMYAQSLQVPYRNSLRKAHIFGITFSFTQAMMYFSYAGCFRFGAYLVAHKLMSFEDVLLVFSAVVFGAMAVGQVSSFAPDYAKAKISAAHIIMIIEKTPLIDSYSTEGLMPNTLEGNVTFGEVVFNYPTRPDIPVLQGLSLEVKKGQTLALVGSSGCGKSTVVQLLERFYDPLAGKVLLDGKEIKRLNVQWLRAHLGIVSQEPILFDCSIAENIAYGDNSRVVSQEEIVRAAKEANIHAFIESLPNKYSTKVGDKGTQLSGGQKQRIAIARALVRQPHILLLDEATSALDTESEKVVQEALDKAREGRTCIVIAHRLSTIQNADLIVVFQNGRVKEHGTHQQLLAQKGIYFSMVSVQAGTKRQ
smiles,measurement,value
CC[C@H](C)[C@H]1O[C@]2(CC[C@@H]1C)C[C@@H]1C[C@@H](C/C=C(\C)[C@@H](O[C@H]3C[C@H](OC)[C@@H](O[C@H]4C[C@H](OC)[C@@H](O)[C@H](C)O4)[C@H](C)O3)[C@@H](C)/C=C/C=C3\CO[C@@H]4[C@H](O)C(C)=C[C@@H](C(=O)O1)[C@]34O)O2 [ABAMECTIN],pKd,7.96
